The text below walks through data of patent US7897578B2, “Peptides with anti-proliferative activity” (Societe de Conseils de Recherches et d'Applications …, priority 2006, dated 2011).

Series [1] concerns human SHSY-5Y neuroblastoma tumour xenograft. In words: In vivo cell proliferation test, SHSY-5Y cells xenografted into athymic mice. Also noted: species or system athymic balb-c NCr-nu/nu mice. The note with it: for reduction in the size of the tumour: after 21 days. The method, then:
3/In vivo Cell Proliferation Test on Cells of the SHSY-5Y Type with Compound 1:
Cancerous cells from human SHSY-5Y neuroblastomas (Code ATCC: CRL-2266) are cultured in DMEM medium (Dulbecco's Modified Eagle's Medium) containing 100 U/ml of penicillin and 100 μg/ml of streptomycin sulphate, complemented with 10% foetal calf serum. The cells thus cultured are then xenografted by sub-cutaneous route into the flanks of athymic balb-c NCr-nu/nu mice, aged 4 to 6 weeks.
After a latent period of several days following the graft, the SHSY-SY cells proliferate and form a small tumour (approximately 70 mm^3) which is obvious under the flank of the animal.
Compound 1 is, at this stage of growth of the tumour, injected by intra-peritoneal route in doses of 5 and 10 mg/kg.
The results are reproduced in FIG. 2 describing the effect of compound 1 on growth kinetics and tumour volume.

Series [2] is described as follows: Toxicity test in xenografted athymic mice (weight of the animals). In kind it is in vivo. To be noted: 5 and 10 mg/kg intra-peritoneal. Here is the method:
4/Toxicity Test of Compound 1:
Cancerous cells from human SHSY-5Y neuroblastomas (Code ATCC: CRL-2266) are cultured in DMEM medium (Dulbecco's Modified Eagle's Medium) containing 100 U/ml of penicillin and 100 μg/ml of streptomycin sulphate, complemented with 10% foetal calf serum. The cells thus cultured are then xenografted by sub-cutaneous route into the flanks of athymic mice.
After a latent period of several days, the SHSY-5Y cells proliferate and form a small, obvious tumour (approximately 70 mm^3).
Compound 1, at this stage of the tumour's growth, is injected by intra-peritoneal route in doses of 5 and 10 mg/kg.
The results are reproduced in FIG. 3 describing the development of the weight of the animals as a function of time, which is an indicator of the possible toxicity of the products tested in this athymic mouse model.

No end group written: not given here.

With “YTVLSVGPGGLRSGRLPLQPRVQLDER-NH2 [Compound 1]”, in series [1] (5 mg/kg intra-peritoneal), the “growth kinetics of the tumour” value is listed as “slowing down” and the “reduction in the size of the tumour” value is “approximately 20%”. In series [1] (10 mg/kg intra-peritoneal), the “growth kinetics of the tumour” value is reported as “very clear slowing down” and the “reduction in the size of the tumour” value is “approximately 50%”. Also, the anti-tumour activity entry in series [1] (intra-peritoneal, 5 and 10 mg/kg, SHSY-5Y xenograft) was “dose-dependant anti-tumour activity”. Moreover, in series [2] (inferred from animal weight), the toxicity entry is “apparent absence of toxicity”. Besides, the “effect on the weight of the animals” value in series [2] (xenografted athymic mice) is on record as “no effect”.
